{"source": "ChEMBL document CHEMBL4840334", "about": "“Discovery of Oral Anticancer 1,2-Bis(hydroxymethyl)benzo[g]pyrrolo[2,1-a]phthalazine Hybrids That Inhibit Angiogenesis and Induce DNA Cross-Links” (J Med Chem, 2021)", "key": {"A549": {"system": "A549", "experiment": "Cytotoxicity against human A549 cells assessed as reduction in cell viability incubated for 72 hrs by PrestoBlue reagent based assay", "format": "functional", "conditions": "A549, 72 h"}, "NCI-H526 [1]": {"system": "NCI-H526", "experiment": "Induction of apoptosis in human NCI-H526 cells assessed as necrotic cells at 0.02 uM measured after 72 hrs by annexinV-FITC/propidium iodide staining based flow cytometry analysis (reference value: 1.9 %)", "format": "functional"}, "[2]": {"experiment": "Cytotoxicity against human PacaS1 cells assessed as reduction in cell viability incubated for 72 hrs by PrestoBlue reagent based assay", "format": "functional", "conditions": "PacaS1, 72 h"}, "NCI-H1417": {"system": "NCI-H1417", "experiment": "Cytotoxicity against human NCI-H1417 cells assessed as reduction in cell viability incubated for 72 hrs by PrestoBlue reagent based assay", "format": "functional", "conditions": "NCI-H1417, 72 h, read-out: IC50"}, "NCI-H526 [3]": {"system": "NCI-H526", "experiment": "Induction of apoptosis in human NCI-H526 cells assessed as early apoptotic cells at 0.04 uM measured after 72 hrs by annexinV-FITC/propidium iodide staining based flow cytometry analysis (reference value: 1 +/- 0.4 %)", "format": "functional"}, "NCI-H526 [4]": {"system": "NCI-H526", "experiment": "Antitumor activity against human NCI-H526 cells xenografted in athymic nu/nu mouse assessed as reduction in tumor volume at 20 mg/kg, iv administered once daily as two cycles for 5 consecutive days with one day rest and measured on day 24 relative to control", "format": "functional", "set-up": "scale not given: the % may be the effect or the level left", "conditions": "time 24 day"}, "Mus musculus": {"system": "Mus musculus", "experiment": "In vivo antiangiogenic activity in FGF/EGF treated nude mouse assessed as suppression of vascular invasion at 4 to 16 uM, sc measured after 15 days relative to vatalanib", "format": "functional", "conditions": "dose 4-16 µM; time 15 day"}, "NCI-H526 [5]": {"system": "NCI-H526", "experiment": "Antitumor activity against human NCI-H526 cells xenografted in athymic nu/nu mouse assessed as reduction in tumor volume at 20 mg/kg, iv administered once daily as two cycles for 5 consecutive days with one day rest and measured on day 28 (reference value: 3.8 %)", "format": "functional", "set-up": "scale not given: the % may be the effect or the level left", "conditions": "time 28 day"}, "[6]": {"experiment": "Toxicity in athymic nu/nu mouse xenografted with human NCI-H526 cells assessed as recovery of body weight loss at 60 mg/kg, po administered once daily as two cycles for 5 consecutive days with one day rest", "format": "organism-based", "conditions": "in vivo"}, "NCI-H526 [7]": {"system": "NCI-H526", "experiment": "Induction of apoptosis in human NCI-H526 cells measured after 72 hrs by annexinV-FITC/propidium iodide staining based flow cytometry analysis", "format": "functional, cell-based", "conditions": "dose 0.01-0.08 µM"}, "NCI-H526 [8]": {"system": "NCI-H526", "experiment": "Antitumor activity against human NCI-H526 cells xenografted in athymic nu/nu mouse assessed as reduction in tumor volume at 60 mg/kg, po administered once daily as two cycles for 5 consecutive days with one day rest and measured after 24 to 28 days", "format": "functional, organism-based", "conditions": "time 24-28 day"}, "NCI-H526 [9]": {"system": "NCI-H526", "experiment": "Induction of apoptosis in human NCI-H526 cells assessed as necrotic cells at 0.08 uM measured after 72 hrs by annexinV-FITC/propidium iodide staining based flow cytometry analysis (reference value: 1.9 %)", "format": "functional"}, "DNA [10]": {"system": "DNA", "experiment": "Binding affinity to DNA (unknown origin) assessed as change in melting temperature at 3 uM incubated for 2 hrs in presence of CG-rich and TA-rich duplexes by UV/Vis-spectrophotometry", "format": "nucleic-acid assay"}, "EA.hy 926 [11]": {"system": "EA.hy 926", "experiment": "Inhibition of tube formation in human EA.hy 926 cells at up to 20 uM measured after 24 hrs by phase contrast microscopic analysis relative to vatalanib", "format": "functional", "conditions": "dose microM <=20"}, "NCI-H526 [12]": {"system": "NCI-H526", "experiment": "Cell cycle arrest in human NCI-H526 cells assessed as increase in cell accumulation at G2/M phase at", "format": "functional, cell-based", "conditions": "dose microM <0.08, time 24-48 hrs"}, "NCI-H2170": {"system": "NCI-H2170", "experiment": "Cytotoxicity against human NCI-H2170 cells assessed as reduction in cell viability incubated for 72 hrs by PrestoBlue reagent based assay", "format": "functional", "conditions": "NCI-H2170, 72 h, read-out: IC50"}, "DNA [13]": {"system": "DNA", "experiment": "Binding affinity to DNA in human NCI-H526 cells assessed as induction of cross-linking causing tail shortening pretreated for 2 hrs followed by UV irradiation by YOYO-1 iodide staining based comet assay", "format": "cell-based", "conditions": "dose 0.04-0.32 µM"}, "NCI-H211": {"system": "NCI-H211", "experiment": "Cytotoxicity against human NCI-H211 cells assessed as reduction in cell viability incubated for 72 hrs by PrestoBlue reagent based assay", "format": "functional", "conditions": "NCI-H211, 72 h"}, "NCI-H526 [14]": {"system": "NCI-H526", "experiment": "Induction of apoptosis in human NCI-H526 cells assessed as late apoptotic cells at 0.02 uM measured after 72 hrs by annexinV-FITC/propidium iodide staining based flow cytometry analysis (reference value: 2.1 +/- 1.4 %)", "format": "functional"}, "786-0": {"system": "786-0", "experiment": "Cytotoxicity against human 786-0 cells assessed as reduction in cell viability incubated for 72 hrs by PrestoBlue reagent based assay", "format": "functional", "conditions": "786-0, 72 h"}, "NCI-H146": {"system": "NCI-H146", "experiment": "Cytotoxicity against human NCI-H146 cells assessed as reduction in cell viability incubated for 72 hrs by PrestoBlue reagent based assay", "format": "functional", "conditions": "NCI-H146, 72 h"}, "EA.hy 926 [15]": {"system": "EA.hy 926", "experiment": "Inhibition of tube formation in human EA.hy 926 cells measured after 24 hrs by phase contrast microscopic analysis", "format": "functional, cell-based", "conditions": "dose microM <=20, time 24.0 hrs"}, "NCI-H526 [16]": {"system": "NCI-H526", "experiment": "Induction of apoptosis in human NCI-H526 cells assessed as early apoptotic cells at 0.02 uM measured after 72 hrs by annexinV-FITC/propidium iodide staining based flow cytometry analysis (reference value: 1 +/- 0.4 %)", "format": "functional"}, "[17]": {"target": "DNA topoisomerase II (Homo sapiens) (UniProt P11388+Q02880)", "experiment": "Inhibition of human DNA topoisomerase 2 at 50 uM incubated for 30 mins by electrophoresis", "format": "protein assay"}, "[18]": {"experiment": "Toxicity in athymic nu/nu mouse xenografted with human NCI-H526 cells assessed as change in body weight at 60 mg/kg, po administered once daily as two cycles for 5 consecutive days with one day rest and measured after 24 to 28 days", "format": "organism-based", "conditions": "in vivo, time 24-28 day"}, "[19]": {"experiment": "Resistance factor, ratio of IC50 for human CEM-VLB cells to IC50 for human CCRF-CEM cells", "format": "functional"}, "NCI-H526 [20]": {"system": "NCI-H526", "experiment": "Induction of apoptosis in human NCI-H526 cells assessed as necrotic cells at 0.04 uM measured after 72 hrs by annexinV-FITC/propidium iodide staining based flow cytometry analysis (reference value: 1.9 %)", "format": "functional"}, "NCI-H520": {"system": "NCI-H520", "experiment": "Cytotoxicity against human NCI-H520 cells assessed as reduction in cell viability incubated for 72 hrs by PrestoBlue reagent based assay", "format": "functional", "conditions": "NCI-H520, 72 h"}, "CEM-VLB": {"system": "CEM-VLB", "experiment": "Cytotoxicity against human CEM-VLB cells assessed as reduction in cell viability incubated for 72 hrs by PrestoBlue reagent based assay", "format": "functional"}, "EA.hy 926 [21]": {"system": "EA.hy 926", "experiment": "Cytotoxicity against human EA.hy 926 cells assessed as reduction in cell viability incubated for 72 hrs by PrestoBlue reagent based assay", "conditions": "EA.hy 926, 72 h"}, "CCRF-CEM": {"system": "CCRF-CEM", "experiment": "Cytotoxicity against human CCRF-CEM cells assessed as reduction in cell viability incubated for 72 hrs by PrestoBlue reagent based assay", "format": "functional"}, "NCI-H526 [22]": {"system": "NCI-H526", "experiment": "Cell cycle arrest in human NCI-H526 cells assessed as decrease in cell accumulation at S phase at", "format": "functional, cell-based", "conditions": "dose microM <0.08, time 24-48 hrs"}, "NCI-H526 [23]": {"system": "NCI-H526", "experiment": "Induction of apoptosis in human NCI-H526 cells assessed as early apoptotic cells at 0.08 uM measured after 72 hrs by annexinV-FITC/propidium iodide staining based flow cytometry analysis (reference value: 1 +/- 0.4 %)", "format": "functional"}, "NCI-H1650": {"system": "NCI-H1650", "experiment": "Cytotoxicity against human NCI-H1650 cells assessed as reduction in cell viability incubated for 72 hrs by PrestoBlue reagent based assay", "format": "functional", "conditions": "NCI-H1650, 72 h"}}, "note": "The source made the active and inactive calls. The rule behind the calls is not given here.", "data": [{"molecule": "Cc1c(CO)c(CO)c2c3cc4ccccc4cc3c(N(C)C)nn12", "values": [{"measurement": "IC50", "setting": "A549", "result": 1550, "unit": "nM"}, {"measurement": "Activity", "setting": "NCI-H526 [1]", "result": 3, "unit": "%"}, {"measurement": "IC50", "setting": "[2]", "result": 3980, "unit": "nM"}, {"measurement": "IC50", "setting": "NCI-H1417", "result": 420, "unit": "nM"}, {"measurement": "Activity", "setting": "NCI-H526 [3]", "result": 10.5, "unit": "%"}, {"measurement": "Activity", "setting": "NCI-H526 [4]", "result": -94.3, "unit": "%"}, {"measurement": "fold change (FC)", "setting": "Mus musculus", "result": 5}, {"measurement": "Activity", "setting": "NCI-H526 [5]", "result": -85.2, "unit": "%"}, {"measurement": "Activity", "setting": "[6]", "result": "Non-Toxic"}, {"measurement": "Activity", "setting": "NCI-H526 [7]", "result": "Dose-Dependent Effect"}, {"measurement": "inhibition", "setting": "NCI-H526 [8]", "result": "Active"}, {"measurement": "Activity", "setting": "NCI-H526 [9]", "result": 9.9, "unit": "%"}, {"measurement": "Activity", "setting": "DNA [10]", "result": "inactive"}, {"measurement": "fold change (FC)", "setting": "EA.hy 926 [11]", "result": 10}, {"measurement": "Activity", "setting": "NCI-H526 [12]", "result": "Active"}, {"measurement": "IC50", "setting": "NCI-H2170", "result": 3270, "unit": "nM"}, {"measurement": "Activity", "setting": "DNA [13]", "result": "Dose-Dependent Effect"}, {"measurement": "IC50", "setting": "NCI-H211", "result": 120, "unit": "nM"}, {"measurement": "Activity", "setting": "NCI-H526 [14]", "result": 10.6, "unit": "%"}, {"measurement": "IC50", "setting": "786-0", "result": 370, "unit": "nM"}, {"measurement": "IC50", "setting": "NCI-H146", "result": 1170, "unit": "nM"}, {"measurement": "inhibition", "setting": "EA.hy 926 [15]", "result": "Dose-Dependent Effect"}, {"measurement": "Activity", "setting": "NCI-H526 [16]", "result": 5.3, "unit": "%"}, {"measurement": "inhibition", "setting": "[17]", "result": "Active"}, {"measurement": "Activity", "setting": "[18]", "result": "Non-Toxic"}, {"measurement": "Ratio IC50", "setting": "[19]", "result": 0.53}, {"measurement": "Activity", "setting": "NCI-H526 [20]", "result": 6.6, "unit": "%"}, {"measurement": "IC50", "setting": "NCI-H520", "result": 1370, "unit": "nM"}, {"measurement": "IC50", "setting": "CEM-VLB", "result": 100, "unit": "nM"}, {"measurement": "IC50", "setting": "EA.hy 926 [21]", "result": 2860, "unit": "nM"}, {"measurement": "IC50", "setting": "CCRF-CEM", "result": 190, "unit": "nM"}, {"measurement": "Activity", "setting": "NCI-H526 [22]", "result": "Active"}, {"measurement": "Activity", "setting": "NCI-H526 [23]", "result": 9.6, "unit": "%"}, {"measurement": "IC50", "setting": "NCI-H1650", "result": 1200, "unit": "nM"}]}]}
